Laboratory results published in patent US20260132127A1, “NOVEL SPIRO COMPOUND” (MITSUBISHI TANABE PHARMA CORPORATION, priority 2021, published 2026).
pIC50: −log10 of the molar value.

These compounds were tested against T1, human TRH-DE (Homo sapiens, UniProt Q9UKU6) (assay: TRH-DE inhibition test (RapidFire MS measurement of product Cyclo (His-Pro))). Conditions: membrane fraction of Expi 293 cells expressing human TRH-DE; 10 μM TRH substrate; room temperature, 2 hours; 16-point concentration test.
T1 construct: expressed in transfected cells; host or cells: Expi 293 cells (transient expression), membrane fraction
T1 sequence (Q9UKU6 1-1069): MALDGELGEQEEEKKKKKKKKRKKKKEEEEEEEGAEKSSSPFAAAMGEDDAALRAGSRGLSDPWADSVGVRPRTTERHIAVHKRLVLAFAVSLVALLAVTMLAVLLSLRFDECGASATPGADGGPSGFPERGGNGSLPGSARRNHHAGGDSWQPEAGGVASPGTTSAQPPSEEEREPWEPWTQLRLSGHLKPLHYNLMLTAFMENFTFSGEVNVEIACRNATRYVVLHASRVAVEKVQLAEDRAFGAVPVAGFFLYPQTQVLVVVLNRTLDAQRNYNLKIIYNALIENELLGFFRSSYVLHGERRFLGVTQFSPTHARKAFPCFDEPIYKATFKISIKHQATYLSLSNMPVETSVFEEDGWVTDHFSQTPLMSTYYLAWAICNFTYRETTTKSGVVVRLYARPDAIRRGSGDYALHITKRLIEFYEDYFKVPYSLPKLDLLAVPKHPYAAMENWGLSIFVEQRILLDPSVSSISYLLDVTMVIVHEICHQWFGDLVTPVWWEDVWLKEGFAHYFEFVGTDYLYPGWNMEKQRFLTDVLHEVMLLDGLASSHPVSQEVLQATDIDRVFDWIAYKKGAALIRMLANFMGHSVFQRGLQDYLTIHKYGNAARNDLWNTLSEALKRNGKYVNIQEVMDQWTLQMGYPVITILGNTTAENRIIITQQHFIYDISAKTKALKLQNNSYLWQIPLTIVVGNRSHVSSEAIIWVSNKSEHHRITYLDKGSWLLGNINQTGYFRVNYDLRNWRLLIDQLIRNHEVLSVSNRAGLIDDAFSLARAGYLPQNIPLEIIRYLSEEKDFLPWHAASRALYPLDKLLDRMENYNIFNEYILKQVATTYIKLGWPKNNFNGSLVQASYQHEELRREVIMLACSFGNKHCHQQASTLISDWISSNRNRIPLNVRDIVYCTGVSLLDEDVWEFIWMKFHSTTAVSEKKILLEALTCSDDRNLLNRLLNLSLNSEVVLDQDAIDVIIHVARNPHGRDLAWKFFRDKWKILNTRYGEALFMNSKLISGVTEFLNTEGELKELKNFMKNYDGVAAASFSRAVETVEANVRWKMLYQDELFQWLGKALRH
Assay type: biochemical
Summary of the method: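 Membrane fraction from Expi 293 cells transiently expressing human TRH-DE, at 4 μg/ml in phosphate buffer pH 7.4 with 200 μM bacitracin, reacted with compound and 10 μM substrate for 2 h at room temperature. Cyclo(His-Pro) measured by RapidFire MS against an isotope internal standard. IC50 from 16-point curves.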

SMILES	pIC50
C[C@@H]1CCn2nc(C3CC3)c(F)c2C(=O)N1C1CC2(C1)CN(S(=O)(=O)c1ccccc1F)C2 [Example 197]	7.89
C[C@@H]1CCn2nc3c(c2C(=O)N1C1CC2(C1)CN(S(=O)(=O)c1ccccc1F)C2)CCC3 [Example 198]	7.85
C[C@@H]1COc2c(cnn2CC(F)F)C(=O)N1C1CC2(C1)CN(S(=O)(=O)c1ccccc1F)C2 [Example 200]	7.72
C[C@@H]1COc2c(cnn2C(C)(C)C)C(=O)N1C1CC2(C1)CN(S(=O)(=O)c1ccccc1F)C2 [Example 203]	7.47
C[C@@H]1COc2c(cnn2-c2ccccc2)C(=O)N1C1CC2(C1)CN(S(=O)(=O)c1ccccc1F)C2 [Example 204]	7.47
C[C@@H]1CCn2c(cnc2Br)C(=O)N1C1CC2(C1)CN(S(=O)(=O)c1ccccc1F)C2 [Example 214]	7.96
C[C@@H]1CCn2cnc(Br)c2C(=O)N1C1CC2(C1)CN(S(=O)(=O)c1ccccc1F)C2 [Example 215]	7.59
Cc1nc(Br)n2c1C(=O)N(C1CC3(C1)CN(S(=O)(=O)c1ccccc1F)C3)[C@H](C)CC2 [Example 216]	7.34
C[C@@H]1CCN2CCC[C@H]2C(=O)N1C1CC2(C1)CN(S(=O)(=O)c1ccccc1F)C2 [Example 221]	6.01
C[C@@H]1CCN2CCC[C@H]2C(=O)N1C1CC2(C1)CN(S(=O)(=O)c1ccccc1F)C2 [Example 222]	6.35
C[C@@H]1Cn2nc(Cl)cc2C(=O)N1C1CC2(C1)CN(S(=O)(=O)c1ccccc1F)C2 [Example 223]	7.74
C[C@@H]1Cn2nc(C(C)(F)F)cc2C(=O)N1C1CC2(C1)CN(S(=O)(=O)c1ccccc1F)C2 [Example 224]	7.39
C[C@@H]1Cn2nc(C3CC3)cc2C(=O)N1C1CC2(C1)CN(S(=O)(=O)c1ccccc1F)C2 [Example 225]	7.96
C[C@@H]1Cn2nc(C3(F)CC3)cc2C(=O)N1C1CC2(C1)CN(S(=O)(=O)c1ccccc1F)C2 [Example 226]	7.80
C[C@@H]1Cn2nc(C3(C(F)(F)F)CC3)cc2C(=O)N1C1CC2(C1)CN(S(=O)(=O)c1ccccc1F)C2 [Example 227]	8.05
C[C@@H]1Cn2nc(C(F)(F)F)cc2C(=O)N1C1CC2(C1)CN(S(=O)(=O)c1ccccc1F)C2 [Example 228]	7.32
C[C@@H]1Cn2ncc(Cl)c2C(=O)N1C1CC2(C1)CN(S(=O)(=O)c1ccccc1F)C2 [Example 229]	7.48
C[C@@H]1Cn2ncc(Br)c2C(=O)N1C1CC2(C1)CN(S(=O)(=O)c1ccccc1F)C2 [Example 230]	7.72
C[C@@H]1Cn2nc(C3CC3)c(F)c2C(=O)N1C1CC2(C1)CN(S(=O)(=O)c1ccccc1F)C2 [Example 231]	7.89
C[C@@H]1Cn2nc(F)c(Br)c2C(=O)N1C1CC2(C1)CN(S(=O)(=O)c1ccccc1F)C2 [Example 232]	7.68
C[C@@H]1Cn2cnc(Br)c2C(=O)N1C1CC2(C1)CN(S(=O)(=O)c1ccccc1F)C2 [Example 233]	7.51
CC1Cc2ccccc2C(=O)N1C1CC2(C1)CN(S(=O)(=O)c1ccccc1F)C2 (stereo not drawn) [Example 240]	7.85
Cc1nn(C2CC3(C2)CN(S(=O)(=O)c2ccccc2)C3)c(=O)c2ccccc12 [Example 241]	6.21
Cc1nn(C2CC3(C2)CN(S(=O)(=O)c2ccccc2F)C3)c(=O)c2ccccc12 [Example 242]	6.18
Cc1nn(C2CC3(C2)CN(S(=O)(=O)c2ccccc2F)C3)c(=O)c2ncccc12 [Example 243]	6.36
O=C1c2ccccc2C2(CC2)N1C1CC2(C1)CN(S(=O)(=O)c1ccccc1F)C2 [Example 244]	7.38
CCN1C[C@@H](C)N(C2CC3(C2)CN(S(=O)(=O)c2ccccc2F)C3)C(=O)c2ncccc21 [Example 245, (3R)-1-ethyl-4-[2-(2-fluorophenyl)sulfonyl-2-azaspiro[3.3]heptan-6-yl]-3-methyl-2,3-dihydropyrido[3,2-e][1,4]diazepin-5-one]	8.70

More lines, now with the values ahead:

pIC50	SMILES
7.68	CCn1ncc2c1OC[C@@H](C)N(C1CC3(C1)CN(S(=O)(=O)c1ccccc1F)C3)C2=O [Example 199]
7.70	C[C@@H]1COc2c(cnn2CC(F)(F)F)C(=O)N1C1CC2(C1)CN(S(=O)(=O)c1ccccc1F)C2 [Example 201]
7.72	C[C@@H]1COc2c(cnn2C2CC2)C(=O)N1C1CC2(C1)CN(S(=O)(=O)c1ccccc1F)C2 [Example 202]
7.85	Cc1nn(C)c2c1C(=O)N(C1CC3(C1)CN(S(=O)(=O)c1ccccc1F)C3)[C@H](C)CO2 [Example 205]
8.30	C[C@@H]1COc2c(c(C3CC3)nn2C)C(=O)N1C1CC2(C1)CN(S(=O)(=O)c1ccccc1F)C2 [Example 206]
7.96	Cc1nn(C2CC2)c2c1C(=O)N(C1CC3(C1)CN(S(=O)(=O)c1ccccc1F)C3)[C@H](C)CO2 [Example 207]
7.85	C[C@@H]1COc2c(c(C3CC3)nn2C2CC2)C(=O)N1C1CC2(C1)CN(S(=O)(=O)c1ccccc1F)C2 [Example 208]
7.66	C[C@@H]1COc2nn(C)cc2C(=O)N1C1CC2(C1)CN(S(=O)(=O)c1ccccc1F)C2 [Example 209]
7.68	C[C@@H]1COc2nn(C3CC3)cc2C(=O)N1C1CC2(C1)CN(S(=O)(=O)c1ccccc1F)C2 [Example 210]
7.89	Cc1c2c(nn1C)OC[C@@H](C)N(C1CC3(C1)CN(S(=O)(=O)c1ccccc1F)C3)C2=O [Example 211]
7.64	C[C@@H]1COc2nn(C)c(Br)c2C(=O)N1C1CC2(C1)CN(S(=O)(=O)c1ccccc1F)C2 [Example 212]
7.46	C[C@@H]1COc2conc2C(=O)N1C1CC2(C1)CN(S(=O)(=O)c1ccccc1F)C2 [Example 217]
7.43	Cc1onc2c1C(=O)N(C1CC3(C1)CN(S(=O)(=O)c1ccccc1F)C3)[C@H](C)CO2 [Example 218]
7.42	C[C@@H]1COc2noc(C(C)(C)C)c2C(=O)N1C1CC2(C1)CN(S(=O)(=O)c1ccccc1F)C2 [Example 219]
7.92	C[C@@H]1COc2noc(C3CC3)c2C(=O)N1C1CC2(C1)CN(S(=O)(=O)c1ccccc1F)C2 [Example 220]
8.40	C[C@@H]1COc2nc([C@H]3C[C@H]3F)sc2C(=O)N1C1CC2(C1)CN(S(=O)(=O)c1ccccc1F)C2 [Example 234, (6R)-2-[(1S,2R)-2-fluorocyclopropyl]-7-[2-(2-fluorophenyl)sulfonyl-2-azaspiro[3.3]heptan-6-yl]-6-methyl-5,6-dihydrothiazolo[5,4-f][1,4]oxazepin-8-one]
8.52	C[C@@H]1COc2nc([C@@H]3C[C@H]3F)sc2C(=O)N1C1CC2(C1)CN(S(=O)(=O)c1ccccc1F)C2 [Example 235, (6R)-2-[(1R,2R)-2-fluorocyclopropyl]-7-[2-(2-fluorophenyl)sulfonyl-2-azaspiro[3.3]heptan-6-yl]-6-methyl-5,6-dihydrothiazolo[5,4-f][1,4]oxazepin-8-one]
8.70	C[C@@H]1COc2nc([C@@H]3C[C@@H]3F)sc2C(=O)N1C1CC2(C1)CN(S(=O)(=O)c1ccccc1F)C2 [Example 236, (6R)-2-[(1R,2S)-2-fluorocyclopropyl]-7-[2-(2-fluorophenyl)sulfonyl-2-azaspiro[3.3]heptan-6-yl]-6-methyl-5,6-dihydrothiazolo[5,4-f][1,4]oxazepin-8-one]
8.52	C[C@@H]1COc2nc([C@H]3C[C@@H]3F)sc2C(=O)N1C1CC2(C1)CN(S(=O)(=O)c1ccccc1F)C2 [Example 237, (6R)-2-[(1S,2S)-2-fluorocyclopropyl]-7-[2-(2-fluorophenyl)sulfonyl-2-azaspiro[3.3]heptan-6-yl]-6-methyl-5,6-dihydrothiazolo[5,4-f][1,4]oxazepin-8-one]
6.45	C[C@@H]1Cn2c(cnc2C(F)(F)F)C(=O)N1C1CC2(C1)CN(S(=O)(=O)c1ccccc1F)C2 [Example 238, (6R)-7-[2-(2-fluorophenyl)sulfonyl-2-azaspiro[3.3]heptan-6-yl]-6-methyl-3-(trifluoromethyl)-5,6-dihydroimidazo[1,5-a]pyrazin-8-one]
7.96	CC1COc2ccccc2C(=O)N1C1CC2(C1)CN(S(=O)(=O)c1ccccc1F)C2 (stereo not drawn) [Example 239, 4-[2-(2-fluorophenyl)sulfonyl-2-azaspiro[3.3]heptan-6-yl]-3-methyl-2,3-dihydro-1,4-benzoxazepin-5-one]
